Here are results for six compounds from patent US8119841B2 (Novartis AG, priority 2006, dated 2012).

Molecules are shown by their SMILES.

A short description of data set [1]: dynamic vapor sorption isotherm. The class given is physicochemical. Particulars: for reversibility of hygroscopicity: up to 60% R.H. at 25° C. An excerpt:
B) Dynamic Vapor Sorption Isotherm of Modification A, Modification B and Amorphous Material: In the following tables 7 and 8, R.H. stands for Relative Humidity, Sorpt. for Sorption and Desorpt. for Desorption.

Data set [2] is described as follows: equilibration in solvents, solid investigated by XRPD. The class given is physicochemical. The arrangement: key to XRPD after equilibration: +: change detected; −: no change detected; //: not carried out as substance too soluble. The conditions noted are these: for change of the form: in cyclohexane or n-heptane; for XRPD after equilibration: 25 degree Celsius. How it is done:
Between 200 mg to 700 mg of drug substance are equilibrated with 0.5 to 1 ml of solvent for at least 24 h in a water bath at the determined temperature +/−0.1° C. After equilibration, the solutions are filtered. The solid part is investigated by XRPD (X-ray Powder Diffraction).

Data set [3] can be described thus: amorphous material kept under organic solvent vapor, XRPD. It counts as physicochemical. Also noted: key: +: change detected; −: no change detected; //: not carried out as substance too soluble. The conditions noted are these: room temperature, at least one week. How it is done:
For example, about 100 mg of amorphous material are placed under organic solvent vapor for at least one week at room temperature. The solid material is investigated by XRPD (X-ray powder diffraction), and the following results are obtained: […]

The nature of data set [4]: XRPD during storage under nitrogen flow. It counts as physicochemical. How it is done: (§1) The aim is to evaluate the influence of the storage condition on the crystalline form of SPP100 hemifumarate For this purpose, two different experiments have been performed. The first one consists to submit SPP100 hemifumarate modification A to a nitrogen flow and to record at various time the corresponding XRPD pattern. During the second experiment the influence of relative humidity on the crystalline modification A is determined by XRPD measurement.

Data set [5] is described as follows: XRPD at various relative humidities. The class given is physicochemical. As for the experimental part:
as §1

Data set [6] is described as follows: heat of dissolution in water. Particulars: about 100 mg in 100 ml of water, 25° C.; mean of three determinations. The class given is physicochemical. How it is done:
About 100 mg of material is placed in a sealed glass ampoule. After equilibration at 25° C., the ampoule is broken in 100 ml of water.

Data set [7] concerns patients with NYHA class II-IV heart failure and LVEF <35%. Particulars: in vivo; cited from earlier work.
Data set [8] is described as follows: stability of solvate single crystals to air and humidity. It counts as physicochemical. As for the experimental part: Characterisation: Structurally, solvate forms SC and SD are characterized by single crystal X-ray diffraction. The single crystals are grown using heptane as antisolvent. The isopropanol and the ethanol solvate of SPP100 hemifumarate can be grown as small needles from isopropanol, or ethanol solution respectively, by precipitation with heptane antisolvent. As there the data quality is better, only the ethanol solvate form obtained from ethanol/heptane (so called SD, corresponding to Form D mentioned in Example 9) is discussed in detail. But from the data the conclusion can be drawn that the isopropanol solvate (so called SC) is isostructural to the ethanol solvate (when heptane is used as antisolvent). The solvate SD stoichiometry consists of one SPP100 molecule, 1/2 fumarate group and 3 solvent molecules.
They consist of a distinct channel structure along the crystallographic b-axis which occupies about 25% of the whole crystal structure volume. […] Hydrogen bonds can be found between SPP100 (hydroxyl group and protonated amine group of SPP100) and the fumarate group and between SPP100 molecules (protonated amine group and oxygen). Another H-bond exists between ethanol and SPP100 (oxygen and amine group). Dominating propagation vector of the H-bonds is the crystallographic b-axis. […]

In data set [9] the test system is severely sodium-depleted marmoset monkeys. The conditions noted are these: orally or intravenously; cited from earlier work.
Data set [10] relates to patients with mild to moderate hypertension. The conditions noted are these: aliskiren 75 mg to 300 mg; 4 weeks duration; cited from earlier work.

On to `COCCCOc1cc(C[C@@H](C[C@H](N)[C@@H](O)C[C@H](C(=O)NCC(C)(C)C(N)=O)C(C)C)C(C)C)ccc1OC` [Amorphous, aliskiren hemifumarate], for which, in data set [1], the hygroscopic behavior result is “strong hygroscopic behavior”. Also, in data set [1], the reversibility of hygroscopicity result is recorded as “reversible”. Also, the “change of the form” value in data set [2] is “No change”. Besides, the “Modification obtained by XRPD” value was “+ Typ V” in data set [3] (1-hexanol vapor); “+ Typ V” in [3] (2-propanol vapor); “+ Typ. IV” in [3] (Acetonitrile vapor); “Mainly amorphous” in data set [3] (Dimethylformamide vapor); “Amorphous + Typ. V” in data set [3] (Ethanol vapor); “+ amorphous + small amount of Typ. III” in [3] (Ethyl acetate vapor). Further, the “Modification obtained by XRPD” value in data set [3] (Methyl acetate vapor) is “+ Typ I”; in data set [3] (TBME vapor), “−”; in [3] (Tetrahydrofurane vapor), “+ Typ III”; in data set [3] (Toluene vapor), “−”; in data set [3] (n-butanol vapor) it was “+ Typ. V”.
In the case of `COCCCOc1cc(C[C@@H](C[C@H](N)[C@@H](O)C[C@H](C(=O)NCC(C)(C)C(N)=O)C(C)C)C(C)C)ccc1OC` [Modification A, aliskiren hemifumarate], the Change result in [4] (0.00 hour), in data set [4] (2.25 hour), in data set [4] (4.53 hour), in data set [4] (7.80 hour), in [4] (13.10 hour) and in [4] (14.75 hour) was “none” each time. For the same compound, the XRPD entry in data set [4] (0.00 hour), in data set [4] (2.25 hour), in [4] (4.53 hour), in [4] (7.80 hour), in [4] (13.10 hour) and in data set [4] (14.75 hour) was “Mod A” each time. The XRPD entry in data set [5] (0 h, RH 0%*) was “Mod A”; in data set [5] (2.55 h, RH 10%), “Mod A”; in [5] (5.01 h, RH 25%), “Mod A”; in data set [5] (7.4 h, RH 35%), “Mod A”; in data set [5] (9.8 h, RH 45%), “Mod A”; in [5] (24.23 h, RH 45%) it was “Mod A”. The XRPD entry is “Mod A” in data set [5] (26.86 h, RH 60%); “Mod A” in data set [5] (32.51 h, RH 70%); “Mod A” in data set [5] (47.6 h, RH 70%); “Mod A” in data set [5] (143.9 h, RH 70%). In addition, the hygroscopic behavior result in [1] is “strong hygroscopic behavior”. For the same compound, the “Sorpt. wt % 1st” value in data set [1] (R.H. 0 %) came to 0.00 wt %. In addition, in data set [1], the reversibility of hygroscopicity entry was “reversible”. Also, in data set [6], the “heat of dissolution, Mean” value was -7.55 kcal/mol. The XRPD after equilibration result was “+ chemical reaction” in [2] (Acetone); “−” in data set [2] (Acetonitrile); “−” in data set [2] (Cyclohexane); “+ Typ III” in data set [2] (DMAc); “+ Typ III” in [2] (Dioxane); “+ Mod. B” in [2] (Isopropanol). For the same compound, the XRPD after equilibration result is on record as “+ chemical reaction” in data set [2] (Methylethylketone); “+ Typ V” in data set [2] (Pentanol); “+ amorphous + Typ II” in [2] (TBME); “+ Typ III” in data set [2] (Tetrahydrofurane); “+ amorphous” in [2] (Toluol); “−” in data set [2] (n-heptane). In addition, the “change of the form” value in data set [2] is listed as “No change”.
`CCOC(=O)[C@H](CCc1ccccc1)N[C@@H](C)C(=O)N1[C@H](C(=O)O)C[C@@H]2CCC[C@@H]21` [ramipril]: in data set [7], the PRA entry is reported as “increased”, the “angiotensin II levels” value was “Trends towards reduced” and the “effects on hormonal parameters” value was “No deleterious effects”.
In the case of `COCCCOc1cc(C[C@@H](C[C@H](N)[C@@H](O)C[C@H](C(=O)NCC(C)(C)C(N)=O)C(C)C)C(C)C)ccc1OC` [SC, aliskiren hemifumarate], in [8], the “stability of the structure to air and humidity” value is “very sensible to air and humidity and decompose rapidly”.
Regarding `COCCCOc1cc(C[C@@H](C[C@H](N)[C@@H](O)C[C@H](C(=O)NCC(C)(C)C(N)=O)C(C)C)C(C)C)ccc1OC` [aliskiren, 2(S),4(S),5(S),7(S)-N-(3-amino-2,2-dimethyl-3-oxopropyl)-2,7-di(1-methylethyl)4-hydroxy-5-amino-8-[4-methoxy-3-(3-methoxy-propoxy)phenyl]-octanamide], in data set [9], the mean arterial pressure result was “sustained reductions”; the “plasma concentrations of active and total renin” value is given as “significant increases”; the plasma renin activity result was “complete inhibition”. The blood pressure entry in [10] was “Dose dependent decreases”. Further, in data set [7], the PRA result is “inhibited” and the “angiotensin II levels” value is given as “Trends towards reduced”.
`COCCCOc1cc(C[C@@H](C[C@H](N)[C@@H](O)C[C@H](C(=O)NCC(C)(C)C(N)=O)C(C)C)C(C)C)ccc1OC` [Modification B, aliskiren hemifumarate]: in [1], the hygroscopic behavior result was “strong hygroscopic behavior”. In addition, the “hygroscopicity compared among the 3 modifications” value in data set [1] is reported as “least hygroscopic form”. Moreover, the “Desorpt wt % 2nd” value in data set [1] (R.H. 0 %) amounted to 0.04 wt %; in [1] (R.H. 10 %), 2.33 wt %; in data set [1] (R.H. 20 %) it was 3.17 wt %; in data set [1] (R.H. 30 %), 3.76 wt %; in data set [1] (R.H. 40 %), 4.47 wt %; in [1] (R.H. 50 %), 5.65 wt %. In data set [1] (R.H. 60 %), the “Desorpt wt % 2nd” value stood at 7.68 wt %. Further, the “Sorpt. wt % 1st” value in data set [1] (R.H. 0 %) is given as 0.00 wt %; in data set [1] (R.H. 10 %) it was 0.94 wt %; in data set [1] (R.H. 20 %), 1.69 wt %; in [1] (R.H. 30 %), 2.53 wt %; in [1] (R.H. 40 %) it was 3.68 wt %; in data set [1] (R.H. 50 %), 5.52 wt %. Also, the “Sorpt. wt % 1st” value in data set [1] (R.H. 60 %) came out at 7.68 wt %. Besides, in data set [1], the reversibility of hygroscopicity result is given as “reversible”. In addition, the “heat of dissolution, Mean” value in [6] was -5.88 kcal/mol. The “change of the form” value in data set [2] is on record as “No change”.
